Test results: patent US20220259164A1, “USE OF AMINOTHIOL COMPOUNDS AS CEREBRAL NERVE OR HEART PROTECTIVE AGENT” (SHANGHAI KECHOW PHARMA, INC., priority 2019, published 2022)
Where a SMILES comes first, the peptide text is derived from it. [ ]: non-standard residue; d: D form. NMeC = CN[C@@H](CS)C(=O)O

Experiments:
Assay type in all cases: in vivo
[1] = system: rat myocardial infarction model (coronary ligation 30 min, reperfusion); experiment: Myocardial infarction model: myocardial enzyme LDH in serum; conditions: for Improvement rate (%) of LDH: compared with model group; for LDH: serum, x ± s, n = 10
Procedure: 1. The rats were grouped and administered according to the following methods (2) Compound B (i.v.) at 100 mg/kg (3) Compound A (i.v.) at 100 mg/kg (4) Compound A (oral) at 500 mg/kg (5) Isosorbide mononitrate injection (i.v.) at 1 mg/kg (equivalent to clinical equivalent dose). There were 10 rats in each group, and the rats were administered intravenously immediately after 30 min of ischemia and reperfusion, i.v. 10% 1 min+i.v. drip 90% 30 min. The administration volume was 2 ml/rat. Compound A (oral) at 500 mg/kg was administered intragastrically 2 h after reperfusion when the animal was awake, and the administration volume was 10 ml/kg. Note: Compounds A and B used in this example were in the form of hydrochloride salts thereof. Given intraperitoneal injection of 3% sodium pentobarbital at 60 mg/kg for general anesthesia, the rats were fixed on an operating table in the supine position. The surgical field of the anterolateral chest was depilated and routinely disinfected. The skin and muscular layer were cut open, purse-string suture was performed on the muscular layer, the chest was opened on the left at the fourth intercostal space, and the heart was pulled out with a ring-shaped retractor. At the position of the anterior descending coronary artery 3-4 mm below the left atrial appendage, a 6/0 damage-free silk thread was threaded, and a nylon thread with a diameter of 1.6 mm was juxtaposed and ligated together with the anterior descending coronary artery, while the other end was left outside the body for later use. The heart was placed back into the chest cavity, the air in the chest cavity was emptied, and the chest cavity was closed. 30 min after ligation, the nylon thread was carefully removed for reperfusion. Compared with the normal lead II electrocardiogram (ECG-II), ST segment elevation in ECG-II by 0.1 mV or more 30 min after coronary artery ligation was regarded as successful ischemia. […] Blood was collected from the rats through the abdominal aorta and centrifuged at 3000 rpm×10 min at 4° C., and the upper serum was taken to determine LDH by enzyme-linked immunosorbent assay.

[2] = system: radiation intestinal injury in C57 male mice; experiment: Protective effect on radiation intestinal injury (HE staining of small intestine); conditions: 517 mpk i.p. 30 min before 16 Gy abdominal irradiation; fifth day
Procedure: (§1) C57 male mice were randomly divided into 4 groups, namely a blank control group, an irradiation group, a compound B (TFA) irradiation group, and an AMI irradiation group, respectively. The mode of administration for each group was an intraperitoneal injection, 30 min before irradiation. The dosage of administration was 517 mpk, and the abdominal irradiation dose was 16 Gy. On the fifth day, the small intestine tissue was taken for HE staining.

[3] = system: radiation lung injury in C57 male mice; experiment: Protective effect on radiation lung injury (HE staining of lung); conditions: 517 mpk i.p. 30 min before 17 Gy right lung irradiation; months 2, 4, 6
Procedure: as §1, with “the” for “the abdominal”, “dose to the right lung” for “dose”, “17” for “16”, “[…] Lung tissues were taken at months 2, 4, and 6 for HE staining” for “staining.”

[4] = system: radiation-induced hematopoietic system injury in C57 male mice; experiment: Protective effect on radiation-induced hematopoietic system injury (peripheral blood indicators); conditions: 517 mpk i.p. 30 min before 4 Gy whole body irradiation; day 15
Procedure: C57 male mice were randomly divided into 6 groups, namely a blank control group, an irradiation group, a compound B (TFA) group, an AMI group, a compound B (TFA) irradiation group, and an AMI irradiation group, respectively. The mode of administration for each group was an intraperitoneal injection, 30 min before irradiation. The dosage of administration was 517 mpk, and the whole body irradiation dose was 4 Gy. On day 15, samples were taken for detecting peripheral blood indicators.

[5] = compound A (hydrochloride) i.v. 100 mg/kg
[6] = compound A (hydrochloride) oral 500 mg/kg
[7] = compound B (hydrochloride) i.v. 100 mg/kg

Compound | Improvement rate (%) of LDH [1, 5] [%] | LDH [1, 5] [U/L] | Improvement rate (%) of LDH [1, 6] [%] | LDH [1, 6] [U/L] | Changes in the intestinal villi structure (HE staining) [2] | Inflammatory cell infiltration / radiation pneumonitis in lung (HE staining) [3] | LY % and NE % in the peripheral blood (abnormal differentiation) [4] | Numbers of WBC, RBC and PLT in the peripheral blood [4] | Improvement rate (%) of LDH [1, 7] [%] | LDH [1, 7] [U/L]
CNC(=O)[C@H](CS)NC(=O)[C@H](CS)NC [Compound A, (R)-3-mercapto-N—((R)-3-mercapto-1-(methylamino)-1-oxoprop-2-yl)-2-(methylamino)propionamide] (H-[NMeC]-Cys-NHMe) | 19.9 | 1521.6 ± 353.6 | 25.8 | 1408 ± 308.7 |  |  |  |  |  | 
CNC(=O)[C@H](CS)NC(=O)[C@H](CS)NC(=O)[C@H](CS)NC [Compound B, (R)-3-mercapto-N—((R)-3-mercapto-1-(((R)-3-mercapto-1-(methylamino)-1-oxoprop-2-yl)amino)-1-oxoprop-2-yl)-2-(methylamino)propionamide] (H-[NMeC]-Cys-Cys-NHMe) |  |  |  |  | milder than that in the irradiation group | could partially relieve the inflammatory cell infiltration and reduce the occurrence of radiation pneumonitis | could alleviate this abnormal differentiation | could increase the numbers of such cells after irradiation | 22.2 | 1476.7 ± 282.4
